Test results taken from patent US6462038B1, “Androgen receptor modulator compounds and methods” (Ligand Pharmaceuticals, Inc., priority 1999, dated 2002).

Test system: immature castrated male rat
Assay: immature castrated male rat model: ventral prostate, seminal vesicle and levator ani growth
Format: in vivo
Settings: oral; for LA (wet wt) / LA eff (% intact) / SV (wet wt) / SV eff (% intact) / VP (wet wt) / VP eff (% of intact): Table 4, castrated immature rats, once daily, 3 days
Source text: The activity of selected compounds of the present invention as AR agonists was investigated in an immature castrated male rat model, a recognized test of the androgen of a given compound, as described in L. G. Hershberger et al., “Myotrophic Activity of 19-Nortestosterone and Other Steroids Determined by Modified Levator Ani Muscle Method” 83 Proc. Soc. Exptl.
The basis of this assay is the fact that the male sexual accessory organs, such as the prostate and seminal vesicles, play an important role in reproductive function. […] F. Labrie et al. 16 Clin. Invest. […] However, this is not a major pathway, since in both animals and humans, castration leads to almost complete involution of the prostate and seminal vesicles without concomitant adrenalectomy. […] Since the male sex organs are the tissues most responsive to modulation of androgen activity, this model is used to determine the androgen-dependent growth of the sex accessory organs in immature castrated rats. […] Male immature rats ([…], 21-day-old, Sprague-Dawley, Harlan) were castrated under metofane anesthesia. Immediately after surgery, animals groups were dosed for 3 days as follows:
At the end of the 3-day treatment, the animals were sacrificed, and the ventral prostates (VP), seminal vesicles (SV), and levator ani (LA) were collected and weighed. The sexual organ weights were first standardized as mg per 100 g of body weight, and the increase in organ weight induced by the compounds of the present invention was compared to the castrate control animals. […] Super-anova (one factor) was used for statistical analysis.
The gain and loss of sexual organ weights reflect the changes of cell number (DNA content) and cell mass (protein content), depending upon the serum androgen concentration. […] Therefore, measurement of organ wet weights is sufficient to indicate the bioactivity of androgens and androgen antagonists.

O=c1cc(C(F)(F)F)c2cc3c(cc2[nH]1)OCCN3CC(F)(F)F [Compound 105, 1,2,3,6-Tetrahydro-1-(2,2,2-trifluoroethyl)-9-(trifluoromethyl)-7H-[1,4]oxazino[3,2-g]quinolin-7-one]
LA (wet wt) (3 mg/kg): 33.0 ± 2.4 mg/100 g body weight
LA eff (% intact) (3 mg/kg): 306 ± 140%
SV (wet wt) (3 mg/kg): 8.5 ± 0.7 mg/100 g body weight
SV eff (% intact) (3 mg/kg): 15 ± 13%
VP (wet wt) (3 mg/kg): 26.9 ± 1.1 mg/100 g body weight
VP eff (% of intact) (3 mg/kg): 12 ± 5%
LA (wet wt) (10 mg/kg): 36.3 ± 1.3 mg/100 g body weight
LA eff (% intact) (10 mg/kg): 498 ± 73%
SV (wet wt) (10 mg/kg): 9.9 ± 0.4 mg/100 g body weight
SV eff (% intact) (10 mg/kg): 42 ± 8.2%
VP (wet wt) (10 mg/kg): 35.9 ± 2.7 mg/100 g body weight
VP eff (% of intact) (10 mg/kg): 52 ± 12%
LA (wet wt) (30 mg/kg): 35.8 ± 1.2 mg/100 g body weight
LA eff (% intact) (30 mg/kg): 469 ± 71%
SV (wet wt) (30 mg/kg): 11.7 ± 1.4 mg/100 g body weight
SV eff (% intact) (30 mg/kg): 78 ± 26%
VP (wet wt) (30 mg/kg): 30.1 ± 2.1 mg/100 g body weight
VP eff (% of intact) (30 mg/kg): 26 ± 9%
LA (wet wt) (100 mg/kg): 39.7 ± 0.6 mg/100 g body weight
LA eff (% intact) (100 mg/kg): 696 ± 36%
SV (wet wt) (100 mg/kg): 14.4 ± 1.0 mg/100 g body weight
SV eff (% intact) (100 mg/kg): 131 ± 19%
VP (wet wt) (100 mg/kg): 42.1 ± 1.6 mg/100 g body weight
VP eff (% of intact) (100 mg/kg): 80 ± 7%
AR agonist activity: weights of the VP, SV and LA (immature castrated rat, statement in words): exhibited AR agonist activity
